In series [1] the test system is human Dendritic Cells (differentiated from PBMCs). Put plainly: Cap immunogenicity by multiplexed cytokine screening (Luminex) in dendritic cells. It counts as cell-based. The note with it: human DCs, 24 hours, compared with Cap1 (FIGS. 3A-3F). The protocol:
Fresh human Dendritic Cells (differentiated from PBMCs by GM-CSF+IL-4 stimulation) were plated at 5e4 cells per well in 96 well flat TC treated dish. mRNA was prepared in Lipofectamine MessengerMAX transfection reagent according to manufacturer's instructions at 2ng/1 k cells. Briefly, mRNA was diluted to 0.02 μg/μl in Opti-MEM reduced serum medium and mixed 1:1 with MessengerMAX to a concentration of 0.01 μg/μl. Two 1:10 dilutions were performed and 10 or 2.5 μl per well of each dilution was added directly to DCs in resulting doses of 2, 0.5, 0.2, 0.05 and 0.02 ng per 1000 DCs. Immunostimulatory RIG-1 agonist Hairpin RNA (3p-hpRNA, InvivoGen) and double stranded RNA (5′ ppp-dsRNA, InvivoGen) were used as controls and formulated as described above.
Stimulated DCs were incubated for 24 hours at 37° C. with 5% CO2. Supernatant was collected and immediately frozen at −80° C. It was subsequently thawed and prepared for Luminex xMAP analysis using a Human Inflammation 20-Plex ProcartaPlex Panel kit (ThermoFisher) according to the manufacturer's instructions. Data was acquired on a MAGPIX system (Luminex xMAP instrument) and pg/mL values for each analyte were derived from a standard curve generated with kit components. Values outside the range of the standard curve were reported as mean fluorescence intensity (MFI).

In another series the test system is Balb/c mice. Kind of series: In vivo expression of Lucia mRNAs containing cap analogs. Conditions: Lucia mRNA capped with the compound, compared with Cap1 (FIG. 1C). The protocol:
Candidate RNAs were formulated using proprietary lipid-based delivery vehicles (e.g., as described in WO 2020/069442 and WO 2023/014931) and administered to Balb/c mice at a dose of 15 μg per mouse. In life serum draws were conducted via submandibular vein at selected time points starting 2 hours post-dose. Serum was diluted 5 μL into […] of QUANTI-Luc reagent (InvivoGen, San Diego, CA, USA) and measured immediately using a plate reader (Molecular Devices, San Jose, CA, USA).

In series [2] the target is T1, HiScribe T7 RNA synthesis kit (IVT reaction, DNA template encoding Lucia) (Escherichia phage T7, UniProt P00573).
T1 construct: purchased New England Biolabs
T1 sequence (P00573 whole entry): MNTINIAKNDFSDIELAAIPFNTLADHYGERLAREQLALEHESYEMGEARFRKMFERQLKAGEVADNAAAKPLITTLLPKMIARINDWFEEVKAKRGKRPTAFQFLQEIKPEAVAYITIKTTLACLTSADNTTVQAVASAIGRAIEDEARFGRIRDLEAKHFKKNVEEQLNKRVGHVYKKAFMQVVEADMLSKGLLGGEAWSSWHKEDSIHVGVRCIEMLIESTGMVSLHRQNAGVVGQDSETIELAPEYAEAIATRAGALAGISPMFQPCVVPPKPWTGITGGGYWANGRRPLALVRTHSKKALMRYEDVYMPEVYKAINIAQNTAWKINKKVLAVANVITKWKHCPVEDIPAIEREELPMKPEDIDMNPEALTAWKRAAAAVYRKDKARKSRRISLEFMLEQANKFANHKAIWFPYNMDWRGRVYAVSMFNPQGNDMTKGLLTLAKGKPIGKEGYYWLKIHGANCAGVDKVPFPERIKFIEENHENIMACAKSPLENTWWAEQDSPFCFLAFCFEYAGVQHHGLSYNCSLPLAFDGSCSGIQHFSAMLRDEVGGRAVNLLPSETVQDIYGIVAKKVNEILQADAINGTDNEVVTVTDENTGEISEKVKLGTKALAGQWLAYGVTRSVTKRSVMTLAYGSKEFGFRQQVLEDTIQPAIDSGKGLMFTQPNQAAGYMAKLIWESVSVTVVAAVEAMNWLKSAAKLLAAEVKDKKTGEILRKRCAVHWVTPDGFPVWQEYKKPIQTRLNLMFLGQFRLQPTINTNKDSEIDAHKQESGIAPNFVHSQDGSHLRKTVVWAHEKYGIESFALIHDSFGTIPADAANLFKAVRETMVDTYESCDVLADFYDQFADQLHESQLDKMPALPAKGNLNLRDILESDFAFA
Put plainly: In vitro transcription (IVT) of mRNAs containing cap analogs: yield / incorporation. It counts as biochemical. The procedure:
mRNA was transcribed from DNA template encoding Lucia using HiScribe T7 RNA synthesis kit (New England Biolabs, Ipswich, MA, USA). N^1-Methylpseudo-UTP (TniLink, San Diego, CA, USA) was used in replaced of UTP for the reaction. For 5′ capping of the mRNA, the cap analog compounds (e.g., Compounds 1-4) described herein, or CleanCap (TriLink, San Diego, CA, USA), were added to the IVT reaction, as indicated. The reactions were performed for 4 hours at 37° C.
Purification of the transcript was performed by TURBO DNase digestion (ThermoFisher Scientific, Waltham, MA, USA) for 30 min at 37° C. followed by RNAClean XP beads (Beckman Coulter) clean up. The RNA bound beads were washed 3 times with freshly prepared 70% ethanol, air dried for 15 minutes followed by elution in 200 μL of nuclease free water. The purified mRNA was quantified using nanodrop (ThermoFisher Scientific, Waltham, MA, USA) and analyzed using Tapestation (Agilent, Santa Clara, CA, USA).

The values below come from patent US20250026779A1 (priority 2023, published 2025).

SMILES strings stand for the structures.

For the compound `CC[n+]1cn([C@@H]2O[C@H](COP(=O)(O)OP(=O)(O)OP(=O)(O)OC[C@H]3O[C@@H](n4cnc5c(N)ncnc54)[C@H](OC)[C@@H]3O[P@@]([O-])(=S)OC[C@H]3O[C@@H](N4C=NC5C(=O)NC(N)=NC54)[C@H](O)[C@@H]3O)[C@@H](O)[C@H]2O)c2nc(N)[nH]c(=O)c21` (stereo partly shown) [Compound 3], the “immunogenicity across key cytokine markers (IFNγ, IFNα, IP-10, IL-1α, TNFα)” value in series [1] is reported as “lower”.

Regarding `CC[n+]1cn([C@@H]2O[C@H](COP(=O)(O)OP(=O)([O-])OP(=O)(O)OC[C@H]3O[C@@H](n4cnc5c(N)ncnc54)[C@H](OC)[C@@H]3OP(=O)(O)OC[C@H]3O[C@@H](n4cnc5c(=O)[nH]c(N)nc54)[C@H](O)[C@@H]3O)[C@@H](O)[C@H]2O)c2nc(N)[nH]c(=O)c21` [Compound 1], in the series on Balb/c mice, the in vivo expression entry was “equivalently”. Also, the IVT yield result in series [2] (mRNA capped with the compound, compared with Cap1 (FIG. 1A)) is on record as “equivalently”. Also, the “incorporation into IVT” value in series [2] (trinucleotide cap modified at the 7G position) is given as “successfully incorporated”.
